Source: patent US8912121B2, “Herbicidal compositions comprising 4-amino-3-chloro-5-fluoro-6-(4-chloro-2-fluoro-3-methoxyphenyl)pyridine-2-carboxylic acid or a derivative thereof and certain PS II inhibitors” (Dow Agrosciences LLC, priority 2012, dated 2014)

Assays:
[1] = tested on: SASKR (Salsola tragus, Russian thistle); assay: Postemergence herbicidal activity of mixtures in cereal crops, greenhouse; format: in vivo, Salsola tragus L.
Experimental: (§1) Seeds of the desired test plant species were planted in Sun Gro MetroMix® 306 planting mixture, which typically has a pH of 6.0 to 6.8 and an organic matter content of about 30 percent, in plastic pots with a surface area of 103.2 square centimeters (cm^2). When required to ensure good germination and healthy plants, a fungicide treatment and/or other chemical or physical treatment was applied. The plants were grown for 7-36 days in a greenhouse with an approximate 14 hour photoperiod which was maintained at about 18° C. during the day and about 17° C. during the night. Nutrients and water were added on a regular basis and supplemental lighting was provided with overhead metal halide 1000-Watt lamps as necessary. The plants were employed for testing when they reached the second or third true leaf stage.
(§2) Treatments consisted of the benzyl ester of 4-amino-3-chloro-5-fluoro-6-(4-chloro-2-fluoro-3-methoxy-phenyl)pyridine-2-carboxylic acid (Compound A), formulated as an SC, a second cereal herbicide alone and then both in combination.
(§3) Other herbicidal components were applied on an active ingredient basis and included PSII-inhibiting herbicides.
(§4) Measured aliquots of benzyl ester of 4-amino-3-chloro-5-fluoro-6-(4-chloro-2-fluoro-3-methoxy-phenyl)pyridine-2-carboxylic acid (Compound A) were placed in 25 milliliter (mL) glass vials and diluted in a volume of 1.25% (v/v) Agri-Dex® crop oil concentrate to obtain stock solutions. Compound requirements are based upon a 12 mL application volume at a rate of 187 liters per hectare (L/ha). Spray solutions of the second cereal herbicide and experimental compound mixtures were prepared by adding the stock solutions to the appropriate amount of dilution solution to form 12 mL spray solution with active ingredients in two- and three-way combinations. Formulated compounds were applied to the plant material with an overhead Mandel track sprayer equipped with an 8002E nozzle calibrated to deliver 187 L/ha over an application area of 0.503 square meters (m^2) at a spray height of 18 inches (46 cm) above average plant canopy. Control plants were sprayed in the same manner with the solvent blank.
(§5) The treated plants and control plants were placed in a greenhouse as described above and watered by sub-irrigation to prevent wash-off of the test compounds. After 20-22 days, the condition of the test plants as compared with that of the control plants was determined visually and scored on a scale of 0 to 100 percent where 0 corresponds to no injury and 100 corresponds to complete kill.
(§6) Colby's equation was used to determine the herbicidal effects expected from the mixtures (Colby, S. R. 1967. Calculation of the synergistic and antagonistic response of herbicide combinations. Weeds 15:20-22).
(§7) The following equation was used to calculate the expected activity of mixtures containing two active ingredients, A and B: Expected=A+B−(A×B/100)

[2] = tested on: AMARE (Amaranthus retroflexus, redroot pigweed); assay: as above; format: in vivo, Amaranthus retroflexus L.
Experimental: as §1, §2, §3, §4, §5
Colby's equation was used to determine the herbicidal effects expected from the mixtures (Colby, S. R. 1967. Calculation of the synergistic and antagonistic response of herbicide combinations. Weeds 15:20-22). […]

[3] = tested on: VERPE (Veronica persica, Persian speedwell); assay: as above; format: in vivo, Veronica persica Poir.
Experimental: as §1, §2, §3, §4, §5, §6, §7

[4] = tested on: FIMMI (Fimbristylis miliacea, globe fringerush); assay: In-water applied mixtures, transplanted paddy rice, greenhouse; format: in vivo, Fimbristylis miliacea (L.) Vahl; conditions: 19 DAA
Experimental: Weed seeds or nutlets of the desired test plant species were planted in puddled soil (mud) prepared by mixing a shredded, non-sterilized mineral soil (50.5 percent silt, 25.5 percent clay, and 24 percent sand, with a pH of about 7.6 and an organic matter content of about 2.9 percent) and water at a 1:1 volumetric ratio. The prepared mud was dispensed in 365 mL aliquots into 16-ounce (oz.) non-perforated plastic pots with a surface area of 86.59 square centimeters (cm^2) leaving a headspace of 3 centimeters (cm) in each pot Mud was allowed to dry overnight prior to planting or transplanting. Rice seeds were planted in Sun Gro MetroMix® 306 planting mixture, which typically has a pH of 6.0 to 6.8 and an organic matter content of about 30 percent, in plastic plug trays. Seedlings at the second or third leaf stage of growth were transplanted into 840 mL of mud contained in 32-oz. non-perforated plastic pots with a surface area of 86.59 cm^2 4 days prior to herbicide application. The paddy was created by filling the headspace of the pots with 2.5 to 3 cm of water. When required to ensure good germination and healthy plants, a fungicide treatment and/or other chemical or physical treatment was applied. The plants were grown for 4-22 days in a greenhouse with an approximate 14 h photoperiod which was maintained at about 29° C during the day and 26° C. during the night. Nutrients were added as Osmocote® (19:6:12, N:P:K+ minor nutrients) at 2 g per 16-oz. pot and 4 g per 32-oz. pot. Water was added on a regular basis to maintain the paddy flood, and supplemental lighting was provided with overhead metal halide 1000-Watt lamps as necessary. The plants were employed for testing when they reached the first through fourth true leaf stage.
Treatments consisted of the acid or esters of 4-amino-3-chloro-5-fluoro-6-(4-chloro-2-fluoro-3-methoxy-phenyl)pyridine-2-carboxylic acid (compound A) each formulated as an SC (suspension concentrate) and various herbicidal components alone and in combination. Forms of compound A were applied on an acid equivalent basis.
Other herbicidal components were applied on an active ingredient basis and included photosystem II (PSII)-inhibits propanil formulated as […] bentazon-sodium formulated as Basagran®, and simetryne (technical grade material).
Treatment requirements for each compound or herbicidal component were calculated based upon the rates being tested, the concentration of active ingredient or acid equivalent in the formulation, an application volume of 2 mL per component per pot, and an application area of 86.59 cm^2 per pot.
For formulated compounds, a measured amount was placed in an individual 100 or 200 mL glass vial and was dissolved in a volume of 1.25% (v/v) Agri-Dex® crop oil concentrate to obtain application solutions.
For technical grade compounds, a weighed amount was placed in an individual 100 to 200 mL glass vial and was dissolved in a volume of acetone to obtain concentrated stock solutions. […]
The treated plants and control plants were placed in a greenhouse as described above and water was added as needed to maintain a paddy flood. After approximately 3 weeks the condition of the test plants as compared with that of the untreated plants was determined visually and scored on a scale of 0 to 100 percent where 0 corresponds to no injury or growth inhibition and 100 corresponds to complete kill. […]

[5] = Compound A Benzyl Ester 2.5 g ai/ha
[6] = Compound A Benzyl Ester 5 g ai/ha
[7] = Compound A Benzyl Ester 10 g ai/ha

Compound: COc1c(Cl)ccc(-c2nc(C(=O)OCc3ccccc3)c(Cl)c(N)c2F)c1F [Compound A Benzyl Ester, benzyl ester of 4-amino-3-chloro-5-fluoro-6-(4-chloro-2-fluoro-3-methoxy-phenyl)pyridine-2-carboxylic acid]
- Visual Weed Control (%)-21 DAA SASKR Obs [1, 5]: 15%
- Visual Weed Control (%)-21 DAA SASKR Obs [1, 6]: 50%
- Visual Weed Control (%)-21 DAA SASKR Obs [1, 7]: 67%
- Visual Weed Control (%) - 21 DAA AMARE Obs [2, 5]: 20%
- Visual Weed Control (%) - 21 DAA AMARE Obs [2, 6]: 38%
- Visual Weed Control (%) - 21 DAA VERPE Obs [3, 6]: 17%
- Visual Weed Control (%) - 21 DAA VERPE Obs [3, 7]: 23%
- Visual Weed Control (%) Obs ([4]; 8 g ae/ha): 0%
- Visual Weed Control (%) Obs ([4]; 16 g ae/ha): 0%
- Visual Weed Control (%) Obs ([4]; 32 g ae/ha): 85%
